Molecular target: T1, thrombin (Homo sapiens, UniProt P00734)
T1 construct: gene F2
Assay: thrombin inhibition dose-response, apparent Ki
Format: biochemical

## CNC(=O)[C@@H]1CN(C(=O)[C@H](Cc2ccccc2CNC(=N)N)NC(=O)N(C)C2CCOc3ccccc32)C[C@H]1c1ccc(OC)cc1 (stereo partly shown) [compound 5]
  Ki: 1 nM

— article PMC7382296, “Discovery of potent thrombin inhibitors from a protease-focused DNA-encoded chemical library” (Proceedings of the National Academy of Sciences of the …, 2020)
